The source of these data is patent publication US20070196850A1, “Identification of aging genes through large-scale analysis” (priority 2006, published 2007).

Read-outs that look alike come from different tables or passages of the source.

The subject of this assay is yeast cells (BY4742). Type of assay: cell-based, Saccharomyces cerevisiae. On the procedure: FIG. 2 illustrates replicative life span (“RLS”) analysis in yeast. […] A mother cell is a yeast cell that has produced one or more daughter cells. […] The total number of mitotic divisions completed by a given mother cell is the replicative life span for that mother cell. One indicator of senescence in yeast is the inability to produce daughter cells.
A large-scaled, life-span analysis is performed as follows. Approximately three days before initiating a life-span-determination assay, a set of 95 strains contained in a yeast alpha-haploid-deletion collection (Open Biosystems), is transferred to a 96-well plate containing YPDagar using a FX robot, so that each strain occupies one well of a 96-well plate. Concurrently, “wildtype” reference cells (BY4742) are plated within an empty well of the 96-well test plate. For 1-2 days, plated cells are allowed to grow on rich medium, such as YPD, at 30° C. Cells are patched onto life-span-measuring plates containing YPD so that approximately 12 strains are plated per plate the night, or approximately 12 hours, before initiating life-span analysis. A life-span experiment is initiated by gridding a region of the plate distal to growing cells, to which 5 cells of each strain of 12 strains are transferred by micromanipulation. Cells are incubated for two hours at 30° C. Then, virgin daughter cells of each deletion variant cell are selected, and original mother cells are removed. Such virgin daughter cells are monitored for de novo production of daughters at 2-3 hour intervals. Produced daughters are individually removed, and tabulated. Mother cells are placed back at 30° C. to allow continued growth. During evening hours, cells are moved to 4° C. so that the cell division rate is reduced to one cell division per evening. The following day, cells are placed at 30° C. to resume growth. This process is continued for a period of time, approximately two weeks, to allow cells of each variant strain to exhaust its proliferative potential. The total number of daughter cells produced by each mother variant cell is tabulated, and determined RLS values are entered into a database.
To perform the life span experiment, 15 μg/mL diazaborine A was added to standard yeast life span plates (YPD). Cells are patched to these plates the night prior to initiation of the life span. The next morning, individual cells were moved to a location on the plate distant from the patch and allow them to divide. The first daughters produced by each mother cell are used to initiate the life span experiment. Subsequently, each daughter cell that these cells produce is removed with a micromanipulator and tabulations are kept.

In the case of `CS(=N)(=O)CC[C@H](N)C(=O)O` (stereo partly shown) [MSX, methionine sulfoximine], where the note is “exposure of yeast cells to MSX”, the “replicative life span in yeast” value was “extends replicative life span”. Besides, the life span result (yeast, 50 uM) is “significantly increases life span”; the life span entry (yeast, 100 uM) was “significantly increases life span”; the life span entry (yeast, 1 mM) was “significantly increases life span”; the life span entry (yeast, 2.5 mM) is “significantly increases life span”. Further, where the note is “yeast, 1 mM, preliminary experiments”, the “increase in mean replicative life span (maximal life span extension)” value is 25-30%.

As to `C[C@@H]1C[C@@H]([C@H](O)CC2CC(=O)NC(=O)C2)C(=O)[C@@H](C)C1` [cycloheximide], the “life span of yeast cells on drug treatment” value (yeast cells treated with drug vs no drug control) was “does not increase life span”.
